Test results reported in ChEMBL document CHEMBL4152291, “Synthesis and biological activities of dithiocarbamates containing 2(5H)-furanone-piperazine” (Eur J Med Chem, 2018).

How the values were obtained:
HeLa [1] = assay: Cytotoxicity against human HeLa cells assessed as inhibition of cell proliferation after 72 hrs by MTT assay; type: functional, cell-based
L02 = assay: Cytotoxicity against human LO2 cells assessed as inhibition of cell proliferation after 72 hrs by MTT assay; type: cell-based; conditions: L02, 72 h
HeLa [2] = assay: Growth inhibition of human HeLa cells at 6.25 ug/ml after 72 hrs by MTT assay relative to control; type: functional; conditions: read-out: GI
HeLa [3] = assay: Growth inhibition of human HeLa cells at 12.5 ug/ml after 72 hrs by MTT assay relative to control; type: functional; conditions: read-out: GI
HeLa [4] = assay: Growth inhibition of human HeLa cells at 25 ug/ml after 72 hrs by MTT assay relative to control; type: functional; conditions: read-out: GI
HeLa [5] = assay: Growth inhibition of human HeLa cells at 50 ug/ml after 72 hrs by MTT assay relative to control; type: functional; conditions: read-out: GI
SMMC-7721 [6] = assay: Growth inhibition of human SMMC7721 cells at 0.01 ug/ml after 72 hrs by MTT assay relative to control; type: functional; conditions: SMMC-7721, 72 h, read-out: GI
SMMC-7721 [7] = assay: Growth inhibition of human SMMC7721 cells at 0.1 ug/ml after 72 hrs by MTT assay relative to control; type: functional; conditions: SMMC-7721, 72 h, read-out: GI
SMMC-7721 [8] = assay: Growth inhibition of human SMMC7721 cells at 0.5 ug/ml after 72 hrs by MTT assay relative to control; type: functional; conditions: SMMC-7721, 72 h, read-out: GI
SMMC-7721 [9] = assay: Growth inhibition of human SMMC7721 cells at 2.5 ug/ml after 72 hrs by MTT assay relative to control; type: functional; conditions: SMMC-7721, 72 h, read-out: GI
SMMC-7721 [10] = assay: Growth inhibition of human SMMC7721 cells at 5 ug/ml after 72 hrs by MTT assay relative to control; type: functional; conditions: SMMC-7721, 72 h, read-out: GI
[11] = Growth inhibition of human LO2 cells at 0.01 ug/ml after 72 hrs by MTT assay relative to control; type: cell-based, L02; conditions: read-out: GI
[12] = Growth inhibition of human LO2 cells at 0.1 ug/ml after 72 hrs by MTT assay relative to control; type: cell-based, L02; conditions: read-out: GI
[13] = Growth inhibition of human LO2 cells at 0.5 ug/ml after 72 hrs by MTT assay relative to control; type: cell-based, L02; conditions: read-out: GI
[14] = Growth inhibition of human LO2 cells at 2.5 ug/ml after 72 hrs by MTT assay relative to control; type: cell-based, L02; conditions: read-out: GI
[15] = Growth inhibition of human LO2 cells at 5 ug/ml after 72 hrs by MTT assay relative to control; type: cell-based, L02; conditions: read-out: GI
HeLa [16] = assay: Growth inhibition of human HeLa cells at 100 ug/ml after 72 hrs by MTT assay relative to control; type: functional; conditions: read-out: GI
HeLa [17] = assay: Cytotoxicity against human HeLa cells; type: functional, cell-based
SMMC-7721 [18] = assay: Induction of apoptosis in human SMMC7721 cells assessed as live cells at 0.1 ug/ml after 72 hrs by Annexin-V-FITC/propidium iodide staining based flow cytometry (reference value: 92.87 to 93.39%); type: functional
SMMC-7721 [19] = assay: Induction of apoptosis in human SMMC7721 cells assessed as early apoptotic cells at 0.1 ug/ml after 72 hrs by Annexin-V-FITC/propidium iodide staining based flow cytometry (reference value: 2.61 to 3.3%); type: functional
SMMC-7721 [20] = assay: Induction of apoptosis in human SMMC7721 cells assessed as late apoptotic cells at 0.1 ug/ml after 72 hrs by Annexin-V-FITC/propidium iodide staining based flow cytometry (reference value: 3.34 to 3.62%); type: functional
SMMC-7721 [21] = assay: Induction of apoptosis in human SMMC7721 cells assessed as necrotic cells at 0.1 ug/ml after 72 hrs by Annexin-V-FITC/propidium iodide staining based flow cytometry (reference value: 0.39 to 0.5%); type: functional
SMMC-7721 [22] = assay: Induction of apoptosis in human SMMC7721 cells assessed as live cells at 0.5 ug/ml after 72 hrs by Annexin-V-FITC/propidium iodide staining based flow cytometry (reference value: 92.87 to 93.39%); type: functional
SMMC-7721 [23] = assay: Induction of apoptosis in human SMMC7721 cells assessed as early apoptotic cells at 0.5 ug/ml after 72 hrs by Annexin-V-FITC/propidium iodide staining based flow cytometry (reference value: 2.61 to 3.3%); type: functional
SMMC-7721 [24] = assay: Induction of apoptosis in human SMMC7721 cells assessed as late apoptotic cells at 0.5 ug/ml after 72 hrs by Annexin-V-FITC/propidium iodide staining based flow cytometry (reference value: 3.34 to 3.62%); type: functional
SMMC-7721 [25] = assay: Induction of apoptosis in human SMMC7721 cells assessed as necrotic cells at 0.5 ug/ml after 72 hrs by Annexin-V-FITC/propidium iodide staining based flow cytometry (reference value: 0.39 to 0.5%); type: functional
SMMC-7721 [26] = assay: Induction of apoptosis in human SMMC7721 cells assessed as live cells at 5 ug/ml after 72 hrs by Annexin-V-FITC/propidium iodide staining based flow cytometry (reference value: 92.87 to 93.39%); type: functional
SMMC-7721 [27] = assay: Induction of apoptosis in human SMMC7721 cells assessed as early apoptotic cells at 5 ug/ml after 72 hrs by Annexin-V-FITC/propidium iodide staining based flow cytometry (reference value: 2.61 to 3.3%); type: functional
SMMC-7721 [28] = assay: Induction of apoptosis in human SMMC7721 cells assessed as late apoptotic cells at 5 ug/ml after 72 hrs by Annexin-V-FITC/propidium iodide staining based flow cytometry (reference value: 3.34 to 3.62%); type: functional
SMMC-7721 [29] = assay: Induction of apoptosis in human SMMC7721 cells assessed as necrotic cells at 5 ug/ml after 72 hrs by Annexin-V-FITC/propidium iodide staining based flow cytometry (reference value: 0.39 to 0.5%); type: functional
SMMC-7721 [30] = assay: Induction of apoptosis in human SMMC7721 cells assessed as increase in early apoptotic cells after 72 hrs by Annexin-V-FITC/propidium iodide staining based flow cytometry; type: functional, cell-based
SMMC-7721 [31] = assay: Induction of apoptosis in human SMMC7721 cells assessed as increase in late apoptotic cells after 72 hrs by Annexin-V-FITC/propidium iodide staining based flow cytometry; type: functional, cell-based

SMILES | Activity (HeLa [1]) | IC50 (HeLa [1]) | inhibition of growth at 6.25 µg/mL (HeLa [2]) | inhibition of growth at 12.5 µg/mL (HeLa [3]) | inhibition of growth at 25 µg/mL (HeLa [4]) | inhibition of growth at 50 µg/mL (HeLa [5]) | inhibition of growth at 0.01 µg/mL (SMMC-7721 [6]) | inhibition of growth at 0.1 µg/mL (SMMC-7721 [7]) | inhibition of growth at 0.5 µg/mL (SMMC-7721 [8]) | inhibition of growth at 2.5 µg/mL (SMMC-7721 [9]) | inhibition of growth at 5 µg/mL (SMMC-7721 [10]) | inhibition at 72 h, 0.01 ug/ml [11] | inhibition at 72 h, 0.1 ug/ml [12] | inhibition at 72 h, 0.5 ug/ml [13] | inhibition at 72 h, 2.5 ug/ml [14] | inhibition at 72 h, 5 ug/ml [15] | inhibition of growth at 100 µg/mL (HeLa [16]) | also measured
C=CCSC(=S)N1CCN(C2=C(Br)C(=O)O[C@@H]2O[C@@H]2C[C@H](C)CC[C@H]2C(C)C)CC1 | Dose-dependent effect | 0.06 µM | 45.6% | 44.5% | 41.7% | 53.8% | 7.87% | 17% | 21% | 40.7% | 67.4% | -1.9% | 5.21% | 9.79% | 11.2% | 12.9% | 57.4% | IC50 (L02): 45.8 µM
CC[C@]1(O)C[C@H]2CN(CCc3c([nH]c4ccccc34)[C@@](C(=O)OC)(c3cc4c(cc3OC)N(C=O)[C@H]3[C@@](O)(C(=O)OC)[C@H](OC(C)=O)[C@]5(CC)C=CCN6CC[C@]43[C@@H]65)C2)C1 [VINCRISTINE] |  |  |  |  |  |  | 12.3% | 17.7% | 23.9% | 45.7% | 68.5% | 1.6% | 1.39% | 7.26% | 11.5% | 16.5% |  | 
COC(=O)CSC(=S)N1CCN(C2=C(Br)C(=O)O[C@@H]2O[C@@H]2C[C@H](C)CC[C@H]2C(C)C)CC1 | Dose-dependent effect | 0.32 µM | 8.57% | 10.9% | 11.3% | 35.3% | 4.41% | 9.68% | 21.4% | 40.1% | 64.5% | 0.87% | 6.98% | 11.1% | 15% | 26.6% | 36.9% | 
Nc1ccn([C@@H]2O[C@H](CO)[C@@H](O)[C@@H]2O)c(=O)n1 [CYTARABINE] |  |  |  |  |  |  | 13% | 16.1% | 24% | 44.5% | 63.1% | -1.76% | 3.02% | 13.3% | 18.8% | 25.4% |  | IC50 (HeLa [17]): 0.95 µM
CC(C)[C@@H]1CC[C@@H](C)C[C@H]1O[C@H]1OC(=O)C(Br)=C1N1CCN(C(=S)SCc2ccccc2)CC1 | Dose-dependent effect | 0.26 µM | 32% | 37.5% | 43.5% | 46.4% | 9.09% | 17% | 20.9% | 39.2% | 75% | -3.31% | 7.48% | 15% | 15.6% | 25.8% | 45% | Activity (SMMC-7721 [18]): 85.91 - 89.74%; Activity (SMMC-7721 [19]): 2.75 - 3.41%; Activity (SMMC-7721 [20]): 5.56 - 7.39%; Activity (SMMC-7721 [21]): 1.29 - 4.56%; Activity (SMMC-7721 [22]): 81.84 - 83.6%; Activity (SMMC-7721 [23]): 4.01 - 5.07%; Activity (SMMC-7721 [24]): 8.98 - 11.36%; Activity (SMMC-7721 [25]): 2.17 - 4.01%; Activity (SMMC-7721 [26]): 64.53 - 65.54%; Activity (SMMC-7721 [27]): 6.06 - 6.14%; Activity (SMMC-7721 [28]): 18.99 - 20.66%; Activity (SMMC-7721 [29]): 7.72 - 9.59%; Activity (SMMC-7721 [30]): Dose-dependent effect; Activity (SMMC-7721 [31]): Dose-dependent effect
